Measured values from patent US20080242700A1, “Methods and Compositions for Selectin Inhibition” (Wyeth, priority 2007, published 2008).
pIC50: −log10 of the molar value.

Molecular target: T1, P-selectin/PSGL-1 interaction (Homo sapiens, UniProt P16109)
T1 construct: comprised of the lectin and epidermal growth factor-like (EGF) domains expressed in CHO cells; made in house; host or cells: CHO cells (P-LE)
T1 sequence (P16109 42-198): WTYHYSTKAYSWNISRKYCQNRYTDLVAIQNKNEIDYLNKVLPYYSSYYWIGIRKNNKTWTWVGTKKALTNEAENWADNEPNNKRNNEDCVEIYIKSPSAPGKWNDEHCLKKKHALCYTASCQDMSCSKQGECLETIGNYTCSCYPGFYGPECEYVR
Assay: Biacore P-selectin/PSGL-1 inhibition assay (surface plasmon resonance)
Format: binding
Conditions: for inhibition at 250 µM: 250 uM test compound, 500 nM P.LE, immobilized biotinylated PSGL-1 19ek, 10% DMSO, pH 7.4, 25° C.
Experimental: Surface plasmon resonance assays were performed on a Biacore 3000 instrument (Biacore Inc. Piscataway, N.J.) at 25° C. at a flow rate of 30 μL/minute and each assay consisted of a 60-second equilibration, a 60-μL sample injection (kinject), and a 300-second dissociation.
A purified, monomeric, truncated form of human PSGL-1, “19ek”, that contained all the necessary P-selectin binding determinants (see Goetz, et al., J Cell Biol., 1997, 137: 509-519; and Sako, et al., Cell, 1995, 83: 323-331) was biotinylated via amine chemistry (Sulfo-NHS-LC-Biotin, Peirce) at a unique C-terminal lysine residue (see Somers, et al., Cell, 2000, 103: 467-479) and immobilized on a Biacore SA sensor chip (Biacore Inc.), using an HBS-EP buffer (Biacore Inc.), and the target 600-700 RU. The coated chip was re-equilibrated with an HBS-P buffer (Biacore Inc.) to which 1 mM CaCl2 and 1 mM MgCl2 (both from Fisher) were added to ensure sufficient calcium for the calcium-dependent interaction between the receptor and the ligand.
Test compounds were incubated for 1 hour in a 1.1× Biacore assay buffer. Each solution was centrifuged through a 0.2 μm filter, using a 96-well plate format (Millipore). Glycyrrhizin tri-sodium salt (TCl) was prepared as a positive control in parallel with the test compounds, in the same manner described above.
A soluble recombinant truncated form of human P-selectin, P-LE, comprised of the lectin and epidermal growth factor-like (EGF) domains expressed in CHO cells (see Somers, et al., Cell, 2000, 103: 467-479) was added to each filtered test compound solution. Final concentrations of reagents were 500 nM P.LE, 250 or 500 μM test compound (depending on structure) or 1 mM glycyrrhizin, 10% DMSO, and 1× Biacore buffer ([…], 150 mM NaCl, 1 mM CaCl2, and 1 mM MgCl2 (all reagents from Fisher)), with a pH of 7.4. Compounds active at 250 μM were titrated to further define activity. Test samples were supplied to the Biacore instrument in a 96-well plate.
The Biacore raw data file was exported as a text file to an Excel spreadsheet, where the buffer blanks bracketing the samples were averaged for each Biacore instrument flow cell (Fc), and subtracted from the averaged uninhibited P.LE samples and from all the other samples. The reference signal from Fc1 (uncoated) was then subtracted from its corresponding active (coated) signal for each injection, a process known as double referencing (see Myszka, J Mol. Recognit., 1999, 12(5): 279-284). The percent inhibition of binding was calculated by dividing the reference-subtracted inhibited signal by the reference-subtracted uninhibited signal, subtracting this value from 1, and multiplying the resulting value by 100. The replicate percent inhibition values were averaged and expressed as the mean±standard deviation. The inter-experiment standard deviation of calculated percent inhibitions in the Biacore assay was ±5.

inhibition at 250 µM | pIC50 (positive control in the Biacore assay) | Compound
48% |  | CC(C)c1cccc2c(C(=O)O)c(O)c(C3Cc4ccccc4C3)nc12 [Compound 4, 3-hydroxy-2-indan-2-yl-8-isopropyl-quinolin-4-carboxylicacid]
35% |  | O=C(O)c1c(O)c(C2Cc3ccccc3C2)nc2c(C(F)(F)F)cccc12 [Compound 5, 3-hydroxy-2-indan-2-yl-8-trifluoromethyl-quinoline-4-carboxylic acid]
 | 3.00 | CC1(C)[C@@H](O[C@H]2O[C@H](C(=O)O)[C@@H](O)[C@H](O)[C@H]2O[C@@H]2O[C@H](C(=O)O)[C@@H](O)[C@H](O)[C@H]2O)CC[C@]2(C)[C@H]3C(=O)C=C4[C@@H]5C[C@@](C)(C(=O)O)CC[C@]5(C)CC[C@@]4(C)[C@]3(C)CC[C@@H]12 [Glycyrrhizin, reference compound]

The remaining lines, values behind:

Compound | inhibition at 250 µM | pIC50 (positive control in the Biacore assay)
O=C(O)c1c(O)c(C2Cc3ccccc32)nc2c(C(F)(F)F)cccc12 (stereo not drawn) [Compound 1, 2-(1,2-dihydrocyclobutabenzen-1-yl)-3-hydroxy-8-(trifluoro-methyl)quinoline-4-carboxylic acid] | 45% | 
Cc1ccc2c(C(=O)O)c(O)c(C3Cc4ccccc43)nc2c1C (stereo not drawn) [Compound 2, 2-(1,2-dihydrocyclobutabenzen-1-yl)-3-hydroxy-7,8-dimethyl-quinolin-4-carboxylic acid] | 17% | 
Cc1ccc2c(C(=O)O)c(O)c(C3Cc4ccccc4C3)nc2c1C [Compound 3, 3-hydroxy-2-indan-2-yl-7,8-dimethyl-quinolin-4-carboxylicacid] | 11% | 
